Results: patent US9302991B2, “Arylamide derivatives as TTX-S blockers” (RaQualia Pharma Inc., priority 2010, dated 2016)

Experiments:
human Nav1.7 channels = molecular target: T1, human Nav1.7 channels (Homo sapiens, UniProt Q15858); test: FRET assay, human Nav1.7 (EFS on FDSS); type: cell-based; details: CHO cells expressing human Nav1.7, read-out: IC50 against Nav1.7
T1 construct: expressed in transfected cells; host or cells: CHO
Procedure, shortened: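 CHO cells stably expressing the channel, loaded with CC2-DMPE (10 µM) then DiSBAC2(3) (15 µM) plus VABSC-1, in HEPES-buffered saline pH 7.4 at room temperature. Electrical field stimulation on FDSS; FRET ratio at 440 nm fitted for IC50.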

human Nav1.3 channels = molecular target: T2, human Nav1.3 channels (Homo sapiens, UniProt Q9NY46); test: FRET assay, human Nav1.3 (EFS on FDSS); type: cell-based; details: HEK293 cells expressing human Nav1.3, read-out: IC50 against Nav1.3
T2 construct: expressed in transfected cells; host or cells: HEK293
Procedure, shortened: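 HEK293 cells expressing the channel, loaded with 10 microM CC2-DMPE then 15 microM DiSBAC2(3) plus 0.555 mM VABSC-1 in pH 7.4 HEPES buffer at room temperature. Membrane potential changes evoked by electrical field stimulation after compound addition; IC50 from 440 nm-normalized FRET ratios.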

T1 sequence (Q15858 whole entry): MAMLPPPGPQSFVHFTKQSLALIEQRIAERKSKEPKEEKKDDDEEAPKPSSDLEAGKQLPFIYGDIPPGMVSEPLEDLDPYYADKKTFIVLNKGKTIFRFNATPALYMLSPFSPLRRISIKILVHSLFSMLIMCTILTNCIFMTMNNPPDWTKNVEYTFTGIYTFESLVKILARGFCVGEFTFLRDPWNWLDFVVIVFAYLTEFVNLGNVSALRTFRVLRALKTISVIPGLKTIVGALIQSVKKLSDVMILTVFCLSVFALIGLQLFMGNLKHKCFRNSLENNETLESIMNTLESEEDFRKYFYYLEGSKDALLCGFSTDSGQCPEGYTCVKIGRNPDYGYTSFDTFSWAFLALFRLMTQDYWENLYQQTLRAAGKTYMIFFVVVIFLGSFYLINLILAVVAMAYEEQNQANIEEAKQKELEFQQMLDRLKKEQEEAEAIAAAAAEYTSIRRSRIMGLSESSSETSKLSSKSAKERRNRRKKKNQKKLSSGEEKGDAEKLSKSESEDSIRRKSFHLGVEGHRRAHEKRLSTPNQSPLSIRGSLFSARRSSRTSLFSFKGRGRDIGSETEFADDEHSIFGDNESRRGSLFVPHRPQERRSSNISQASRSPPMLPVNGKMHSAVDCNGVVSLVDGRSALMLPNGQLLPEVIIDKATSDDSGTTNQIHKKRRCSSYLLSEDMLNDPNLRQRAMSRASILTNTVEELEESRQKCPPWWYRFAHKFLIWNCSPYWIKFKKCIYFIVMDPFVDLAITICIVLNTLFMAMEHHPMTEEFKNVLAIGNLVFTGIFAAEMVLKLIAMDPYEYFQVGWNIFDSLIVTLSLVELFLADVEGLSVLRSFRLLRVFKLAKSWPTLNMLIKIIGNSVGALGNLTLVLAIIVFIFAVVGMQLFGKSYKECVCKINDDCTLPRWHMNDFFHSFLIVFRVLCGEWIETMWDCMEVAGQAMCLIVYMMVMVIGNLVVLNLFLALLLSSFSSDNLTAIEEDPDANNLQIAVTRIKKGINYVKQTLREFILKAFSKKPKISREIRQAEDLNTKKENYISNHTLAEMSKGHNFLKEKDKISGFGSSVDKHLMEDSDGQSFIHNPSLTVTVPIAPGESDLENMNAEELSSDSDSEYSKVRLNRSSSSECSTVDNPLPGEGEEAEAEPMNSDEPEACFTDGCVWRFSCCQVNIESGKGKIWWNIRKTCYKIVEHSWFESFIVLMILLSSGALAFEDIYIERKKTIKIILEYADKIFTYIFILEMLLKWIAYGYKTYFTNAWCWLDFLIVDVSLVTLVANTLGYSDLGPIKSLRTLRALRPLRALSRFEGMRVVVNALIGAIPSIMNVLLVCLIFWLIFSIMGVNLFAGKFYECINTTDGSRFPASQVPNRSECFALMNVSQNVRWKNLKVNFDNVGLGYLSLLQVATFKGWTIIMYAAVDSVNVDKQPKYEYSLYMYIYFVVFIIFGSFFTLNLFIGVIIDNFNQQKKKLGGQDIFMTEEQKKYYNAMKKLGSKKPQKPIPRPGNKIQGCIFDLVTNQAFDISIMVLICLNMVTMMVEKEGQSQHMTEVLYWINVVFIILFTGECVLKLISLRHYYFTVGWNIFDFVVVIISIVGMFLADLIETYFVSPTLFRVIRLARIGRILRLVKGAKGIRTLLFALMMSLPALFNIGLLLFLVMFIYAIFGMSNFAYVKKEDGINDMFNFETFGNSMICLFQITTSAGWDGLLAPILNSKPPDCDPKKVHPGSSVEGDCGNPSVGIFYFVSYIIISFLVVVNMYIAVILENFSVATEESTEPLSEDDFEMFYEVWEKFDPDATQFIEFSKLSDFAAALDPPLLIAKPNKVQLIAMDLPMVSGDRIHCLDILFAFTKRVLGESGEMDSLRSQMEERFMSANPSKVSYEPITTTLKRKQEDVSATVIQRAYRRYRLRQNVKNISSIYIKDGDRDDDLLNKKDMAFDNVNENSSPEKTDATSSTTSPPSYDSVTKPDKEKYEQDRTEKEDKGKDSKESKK
T2 sequence (Q9NY46 whole entry): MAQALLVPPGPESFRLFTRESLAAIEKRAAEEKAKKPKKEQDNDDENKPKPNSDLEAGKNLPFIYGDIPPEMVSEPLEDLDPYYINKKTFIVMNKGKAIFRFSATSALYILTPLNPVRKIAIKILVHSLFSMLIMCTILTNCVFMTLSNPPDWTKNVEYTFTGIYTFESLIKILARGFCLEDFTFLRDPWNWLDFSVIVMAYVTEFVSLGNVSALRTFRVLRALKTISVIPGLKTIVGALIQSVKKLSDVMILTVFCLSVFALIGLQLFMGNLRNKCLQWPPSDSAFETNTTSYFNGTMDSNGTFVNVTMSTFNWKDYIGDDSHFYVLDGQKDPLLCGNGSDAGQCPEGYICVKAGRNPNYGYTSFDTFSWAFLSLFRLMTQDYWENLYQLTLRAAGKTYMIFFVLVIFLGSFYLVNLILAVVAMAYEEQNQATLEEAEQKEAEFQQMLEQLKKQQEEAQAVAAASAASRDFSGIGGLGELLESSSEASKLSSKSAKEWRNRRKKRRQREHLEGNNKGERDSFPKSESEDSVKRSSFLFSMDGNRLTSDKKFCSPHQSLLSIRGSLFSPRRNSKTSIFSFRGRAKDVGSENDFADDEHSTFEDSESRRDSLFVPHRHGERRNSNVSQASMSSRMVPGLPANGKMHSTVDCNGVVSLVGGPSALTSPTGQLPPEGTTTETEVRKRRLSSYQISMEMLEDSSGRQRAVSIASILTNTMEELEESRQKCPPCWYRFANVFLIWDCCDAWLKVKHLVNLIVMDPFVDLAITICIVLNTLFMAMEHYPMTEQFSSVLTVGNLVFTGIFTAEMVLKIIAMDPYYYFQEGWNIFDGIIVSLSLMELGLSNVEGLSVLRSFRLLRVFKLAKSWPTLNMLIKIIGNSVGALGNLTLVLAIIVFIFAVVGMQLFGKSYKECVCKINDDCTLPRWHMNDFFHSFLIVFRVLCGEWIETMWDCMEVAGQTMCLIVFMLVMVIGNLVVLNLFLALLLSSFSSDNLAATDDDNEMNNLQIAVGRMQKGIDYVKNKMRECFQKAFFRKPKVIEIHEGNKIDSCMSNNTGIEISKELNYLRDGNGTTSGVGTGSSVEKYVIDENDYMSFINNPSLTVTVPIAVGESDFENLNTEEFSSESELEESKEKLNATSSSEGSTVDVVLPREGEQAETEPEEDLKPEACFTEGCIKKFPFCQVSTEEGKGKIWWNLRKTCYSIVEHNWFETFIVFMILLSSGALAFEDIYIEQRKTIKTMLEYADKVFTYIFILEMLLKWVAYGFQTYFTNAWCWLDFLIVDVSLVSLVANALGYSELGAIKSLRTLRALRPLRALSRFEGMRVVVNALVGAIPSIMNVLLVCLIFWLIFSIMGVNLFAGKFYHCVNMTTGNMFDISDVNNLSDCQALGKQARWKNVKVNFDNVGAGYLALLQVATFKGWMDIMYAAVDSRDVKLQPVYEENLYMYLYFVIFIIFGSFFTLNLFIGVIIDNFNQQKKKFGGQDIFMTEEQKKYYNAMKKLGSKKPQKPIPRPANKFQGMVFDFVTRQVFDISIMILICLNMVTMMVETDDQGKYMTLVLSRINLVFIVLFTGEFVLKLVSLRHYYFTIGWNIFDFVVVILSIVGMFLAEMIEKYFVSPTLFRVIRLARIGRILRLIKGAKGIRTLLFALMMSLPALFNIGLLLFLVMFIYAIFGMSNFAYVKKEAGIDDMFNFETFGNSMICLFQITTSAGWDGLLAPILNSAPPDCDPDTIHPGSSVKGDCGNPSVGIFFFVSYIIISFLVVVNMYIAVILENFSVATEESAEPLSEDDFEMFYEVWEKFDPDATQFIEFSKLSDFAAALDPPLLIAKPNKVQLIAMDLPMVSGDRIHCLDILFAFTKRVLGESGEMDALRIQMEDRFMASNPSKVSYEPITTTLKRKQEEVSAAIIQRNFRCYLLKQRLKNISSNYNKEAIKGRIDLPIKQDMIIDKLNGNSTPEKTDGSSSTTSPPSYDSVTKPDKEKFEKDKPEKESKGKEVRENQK

Structure (SMILES) | IC50 (human Nav1.7 channels) [nM] | IC50 (human Nav1.3 channels) [nM]
Cc1cc(C(=O)NCc2cnc(OCC(F)(F)F)c(Br)c2)nc(NC(=O)C2CC2)n1 [Example 902, N-((5-bromo-6-(2,2,2-trifluoroethoxy)pyridin-3-yl)methyl)-2-(cyclopropanecarboxamido)-6-methylpyrimidine-4-carboxamide] | < 1000 | < 1000
CCc1cc(CNC(=O)c2cc(C)nc(NC(=O)C(C)C)c2)cnc1OCC(F)F [Example 911, N-((6-(2,2-difluoroethoxy)-5-ethylpyridin-3-yl)methyl)-2-isobutyramido-6-methylisonicotinamide] | < 1000 | < 1000
CCC(=O)Nc1cc(C(=O)NCc2cnc(OCC(F)F)c(CC)c2)ccn1 [Example 930, N-((6-(2,2-difluoroethoxy)-5-ethylpyridin-3-yl)methyl)-2-propionamidoisonicotinamide] | < 1000 | < 1000
CC(=O)Nc1cc(C(=O)NCc2cnc(OCC(F)(F)C(F)F)c(C)c2)ccn1 [Example 939, 2-acetamido-N-((5-methyl-6-(2,2,3,3-tetrafluoropropoxy)pyridin-3-yl)methyl)isonicotinamide] | < 1000 | < 1000
CCC(=O)Nc1cc(C(=O)NCc2cnc(OCC(F)(F)C(F)F)c(C)c2)ccn1 [Example 940, N-((5-methyl-6-(2,2,3,3-tetrafluoropropoxy)pyridin-3-yl)methyl)-2-propionamidoisonicotinamide] | < 1000 | < 1000
Cc1cc(CNC(=O)c2ccnc(NC(=O)C(C)C)c2)cnc1OCC(F)(F)C(F)F [Example 941, 2-isobutyramido-N-((5-methyl-6-(2,2,3,3-tetrafluoropropoxy)pyridin-3-yl)methyl)isonicotinamide] | < 1000 | < 1000
Cc1cc(CNC(=O)c2ccnc(NC(=O)C3CC3)c2)cnc1OCC(F)(F)C(F)F [Example 942, 2-(cyclopropanecarboxamido)-N-((5-methyl-6-(2,2,3,3-tetrafluoropropoxy)pyridin-3-yl)methyl)isonicotinamide] | < 1000 | < 1000
Cc1cc(CNC(=O)c2ccnc(NC(=O)C3CC3)n2)cnc1OCC(F)(F)C(F)F [Example 943, 2-(cyclopropanecarboxamido)-N-((5-methyl-6-(2,2,3,3-tetrafluoropropoxy)pyridin-3-yl)methyl)pyrimidine-4-carboxamide] | < 1000 | < 1000
CC(=O)Nc1cc(C(=O)NCc2cnc(OCC(F)(F)C(F)F)c(C)c2)cc(C)n1 [Example 944, 2-acetamido-6-methyl-N-((5-methyl-6-(2,2,3,3-tetrafluoropropoxy)pyridin-3-yl)methyl)isonicotinamide] | < 1000 | < 1000
Cc1cc(C(=O)NCc2cnc(OCC(F)(F)C(F)F)c(C)c2)cc(NC(=O)C(C)C)n1 [Example 945, 2-isobutyramido-6-methyl-N-((5-methyl-6-(2,2,3,3-tetrafluoropropoxy)pyridin-3-yl)methyl)isonicotinamide] | < 1000 | < 1000
Cc1cc(C(=O)NCc2cnc(OCC(F)(F)C(F)F)c(C)c2)cc(NC(=O)C2CC2)n1 [Example 946, 2-(cyclopropanecarboxamido)-6-methyl-N-((5-methyl-6-(2,2,3,3-tetrafluoropropoxy)pyridin-3-yl)methyl)isonicotinamide] | < 1000 | < 1000
Cc1cc(C(=O)NCc2cnc(OCC(F)(F)C(F)F)c(C)c2)nc(NC(=O)C2CC2)n1 [Example 947, 2-(cyclopropanecarboxamido)-6-methyl-N-((5-methyl-6-(2,2,3,3-tetrafluoropropoxy)pyridin-3-yl)methyl)pyrimidine-4-carboxamide] | < 1000 | < 1000
Cc1cc(C(=O)NCc2cnc(OCC(F)(F)F)c(C)c2)cc(NC(=O)CC2CC2)n1 [Example 954, 2-(2-cyclopropylacetamido)-6-methyl-N-((5-methyl-6-(2,2,2-trifluoroethoxy)pyridin-3-yl)methyl)isonicotinamide] | < 1000 | < 1000
Cc1cc(C(=O)NCc2cccc(OC(F)(F)F)c2)cc(NC(=O)CC2CC2)n1 [Example 962, 2-(2-cyclopropylacetamido)-6-methyl-N-(3-(trifluoromethoxy)benzyl)isonicotinamide] | < 1000 | < 1000
Cc1cc(C(=O)NCc2cc(C(F)(F)F)ccc2F)cc(NC(=O)C2CC2)n1 [Example 975, 2-(cyclopropanecarboxamido)-N-(2-fluoro-5-(trifluoromethyl)benzyl)-6-methylisonicotinamide] | < 1000 | < 1000
